Data published in patent US11555036B2, “FGFR4 inhibitor, preparation method therefor and pharmaceutical use thereof” (Abbisko Therapeutics Co., Ltd., priority 2016, dated 2023).

Tests used:
FGFR4 = FGFR4 (Homo sapiens, UniProt P22455); test: FGFR4 Caliper Assay (in vitro biochemical kinase analysis of FGFR4); settings: read-out: Enzymatic activity FGFR4 IC50
Method: I. In Vitro Biochemical Kinase Analysis of FGFR4
FGFR4 Caliper Assay was used in the present invention to determine the inhibitory activities of the compounds against FGFR4. The detailed experimental procedure was as follows.
2. A reaction system is a mixture solution of 50 mM HEPES, pH 7.5, 1 mM DTT, 0.02% Tween 20, 0.02% BSA, 0.6% DMSO, 10 mM beta glycerol phosphate and 10 μM sodium orthovanadate and 16 mM MgCl2.
3. The reaction system was incubated at 30° C. for 40 minutes.
4. The reaction was terminated by adding a stop solution (100 mM HEPES, pH 7.5, 5% DMSO, 0.1% Caliper coating reagent, 10 mM EDTA and 0.015% Brij35).
5. The culture plate with the terminated kinase reaction was transferred to the Caliper LC 3000 workstation to read the data, the phosphorylated and unphosphorylated peptides were separated by using the Caliper microfluid migration shift technique, and the analyte was transferred by allowing a constant buffer flow through the chip, the migration of the substrate peptide was monitored by the labeled fluorescent signal, and the kinase activity was calculated by using the amount of the phosphate-based peptide formed.
6. Finally, IC50 values were determined by non-linear regression analysis of percent inhibition at different compound concentrations.

[1] = tested on: Huh7 hepatocellular carcinoma cells; test: FGFR4 cell proliferation experiment, Cell Titer Glo (CTG); type: cell-based; settings: Homo sapiens, Huh-7, 72 h, HuH-7 cells, 3 days; for IC50: concentration leading to absolute half growth inhibition; for EC50: concentration leading to half maximal growth inhibition
Method: II. FGFR4 Cell Proliferation Experiment
Cell Titer Glo (CTG) experiment was used in the present invention to evaluate the functional effects of the compounds on cell proliferation. […] Compound-mediated inhibition of cell proliferation/survival was assessed by quantification of cellular ATP levels using CTG reagent (Promega, #G7573). The specific experimental procedure was as follows:
2. 10 μL of medium containing a compound concentration of 10 fold of its final test concentration was added;
3. The dose effect was evaluated by a 5-fold serial dilution of the test compound, starting from 10 μM.
4. After cells incubation for 3 days at 37° C. under 5% CO2, the effect of the inhibitor on cell proliferation was quantified after adding 50 μL of CTG and testing with luminescence.

Sequence of FGFR4 (P22455 22-802): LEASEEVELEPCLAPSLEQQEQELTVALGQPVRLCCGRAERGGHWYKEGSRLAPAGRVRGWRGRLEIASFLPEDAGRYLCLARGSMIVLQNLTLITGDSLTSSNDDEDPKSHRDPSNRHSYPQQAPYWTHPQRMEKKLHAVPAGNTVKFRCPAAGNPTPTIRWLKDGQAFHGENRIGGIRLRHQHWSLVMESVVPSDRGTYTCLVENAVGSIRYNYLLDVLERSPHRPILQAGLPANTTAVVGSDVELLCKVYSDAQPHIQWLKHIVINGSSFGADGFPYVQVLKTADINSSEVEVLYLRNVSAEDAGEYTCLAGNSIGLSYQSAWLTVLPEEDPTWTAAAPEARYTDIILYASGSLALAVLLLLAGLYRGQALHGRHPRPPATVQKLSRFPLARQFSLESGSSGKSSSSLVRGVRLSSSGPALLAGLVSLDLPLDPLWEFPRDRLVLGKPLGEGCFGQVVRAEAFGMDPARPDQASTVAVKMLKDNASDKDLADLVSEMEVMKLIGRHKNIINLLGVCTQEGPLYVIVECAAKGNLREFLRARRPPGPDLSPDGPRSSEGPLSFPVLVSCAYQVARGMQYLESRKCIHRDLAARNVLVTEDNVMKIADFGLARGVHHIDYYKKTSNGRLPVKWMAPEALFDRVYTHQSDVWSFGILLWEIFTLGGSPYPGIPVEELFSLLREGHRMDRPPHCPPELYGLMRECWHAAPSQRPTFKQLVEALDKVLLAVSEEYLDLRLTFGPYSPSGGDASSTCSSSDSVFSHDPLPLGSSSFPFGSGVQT

| SMILES | IC50 (FGFR4) [µM] | IC50 [1] [µM] | EC50 [1] [µM] |
| --- | --- | --- | --- |
| C=CC(=O)N[C@H]1CCOC[C@H]1Nc1ncc2cc(-c3c(Cl)c(OC)cc(OC)c3Cl)ncc2n1 [Example 119, N-((3S,4S)-3-((6-(2,6-dichloro-3,5-dimethoxyphenyl)pyrido[3,4-d]pyrimidin-2-yl)amino)tetrahydro-2H-pyran-4-yl)acrylamide] | 0.166 | 0.457 | 0.0781 |
| C=CC(=O)N[C@H]1COC[C@H]1Nc1ncc2cc(-c3c(F)c(OC)cc(OC)c3F)ncc2n1 [Example 120, N-((3R,4S)-4-((6-(2,6-difluoro-3,5-dime-thoxyphenyl)pyrido[3,4-d]pyrimidin-2-yl)amino)tetrahydrofuran-3-yl)acrylamide] | 0.303 | 0.754 | 0.156 |
| C=CC(=O)N[C@H]1COC[C@H]1Nc1ncc2cc(-c3cc(OC)cc(OC)c3Cl)ncc2n1 [Example 121, N-((3R,4S)-4-((6-(2-chloro-3,5-dime-thoxyphenyl)pyrido[3,4-d]pyrimidin-2-yl)amino)tetrahydrofuran-3-yl)acrylamide] | 0.183 | 0.401 | 0.172 |
| C=CC(=O)N[C@H]1COC[C@H]1Nc1cc2cnc(-c3c(Cl)c(OC)cc(OC)c3Cl)cc2cn1 [Example 124, N-((3R,4S)-4-((7-(2,6-dichloro-3,5-dime-thoxyphenyl)-2,6-naphthyridin-3-yl)amino)tetrahydrofuran-3-yl)acrylamide] | 0.0616 | 0.556 | 0.303 |
| C=CC(=O)N[C@H]1COC[C@H]1Nc1cc2c(NCC3CC3)nc(-c3c(Cl)c(OC)cc(OC)c3Cl)cc2cn1 [Example 126, N-((3R,4S)-4-((5-((cyclopropylmethyl)amino)-7-(2,6-dichloro-3,5-dimethoxy-phenyl)-2,6-naphthyridin-3-yl)amino)tetrahydrofuran-3-yl)acrylamide] | 0.022 | 0.0537 | 0.0315 |
| C=CC(=O)N[C@H]1COC[C@H]1Nc1ncc2cc(-c3c(Cl)c(OC)cc(OC)c3Cl)nc(NCC3CC3)c2n1 [Example 421, N-((3R,4S)-4-((8-((cyclopropylmethyl)amino)-6-(2,6-dichloro-3,5-dimethoxyphenyl)pyrido[3,4-d]pyrimidin-2-yl)amino)tetrahydrofuran-3-yl)acrylamide] | 0.0124 | 0.01 | 0.0054 |
| C=CC(=O)N[C@H]1COC[C@H]1Nc1ncc2cc(-c3c(Cl)c(OC)cc(OC)c3Cl)nc(NCCOC)c2n1 [Example 422, N-((3R,4S)-4-((6-(2,6-dichloro-3,5-di-methoxyphenyl)-8-((2-methoxyethyl)amino)pyrido[3,4-d]pyrimidin-2-yl)a-mino)tetrahydrofuran-3-yl)acrylamide] | 0.0225 | 0.239 | 0.047 |
| C=CC(=O)N[C@H]1COC[C@H]1Nc1ncc2cc(-c3c(Cl)c(OC)cc(OC)c3Cl)nc(OC)c2n1 [Example 423, N-((3R,4S)-4-((6-(2,6-dichloro-3,5-di-methoxyphenyl)-8-methoxypyrido[3,4-d]pyrimidin-2-yl)amino)tetrahydro-furan-3-yl)acrylamide] | 0.0317 | 0.348 | 0.098 |
| C=CC(=O)N[C@H]1COC[C@H]1Nc1ncc2cc(-c3c(F)c(OC)cc(OC)c3F)nc(NCC3CC3)c2n1 [Example 424, N-((3R,4S)-4-((8-((cyclopropylmeth-yl)amino)-6-(2,6-difluoro-3,5-dimeth-oxyphenyl)pyrido[3,4-d]pyrimidin-2-yl)amino)tetrahydrofuran-3-yl)acryl-amide] | 0.011 | 0.0372 | 0.0185 |
| C=CC(=O)N[C@H]1COC[C@H]1Nc1ncc2cc(-c3c(Cl)c(OC)cc(OC)c3Cl)nc(NCCS(=O)(=O)CC)c2n1 [Example 429, N-((3R,4S)-4-((6-(2,6-dichloro-3,5-di-methoxyphenyl)-8-((2-(ethylsulfonyl)ethyl)amino)pyrido[3,4-d]pyrimidin-2-yl)amino)tetrahydrofuran-3-yl)acryl-amide] | 0.0224 | 0.184 | 0.0632 |
